This assay concerns T1, trypsin from crevalle jack (Caranx hippos) pyloric caeca.
T1 construct: gene trypsin-like enzyme; native, purified from pyloric caeca (heat, ammonium sulfate, Sephadex G-75); mature N-terminus IVGGFECTPHVFAYQ
Kind of assay: p-nitroaniline release at […] nm, Michaelis-Menten fit. The class given is biochemical. The conditions noted are these: 0.1 M Tris-HCl pH 8.0; 0.02-2.4 mM BApNA.

These results are taken from paper PMC3817308, “Metal-sensitive and thermostable trypsin from the crevalle jack (Caranx hippos) pyloric caeca: purification and characterization” (Chemistry Central Journal, 2013).

Usually Km stands for the concentration of substrate that gives half-maximal velocity.

On to `NC(N)=NCCCC(NC(=O)c1ccccc1)C(=O)Nc1ccc([N+](=O)[O-])cc1` (racemic) [BApNA, N-α-benzoyl-DL-arginine-p-nitroanilide], for which the Km was found to be 689 ± 50 µM.
